In US8513286B2, “Iminipyridine derivatives and their uses as microbiocides” (Syngenta Crop Protection LLC, priority 2007, dated 2013):

Tests used:
Assay type in all cases: in vivo
[1] = test system: Erysiphe graminis f.sp. hordei; assay: Erysiphe graminis f.sp. hordei, powdery mildew of barley, curative test on barley leaf segments; details: Blumeria graminis, foliar, 168 h; application rate 200 ppm; barley leaf segments sprayed 24 h after inoculation; assessed 7 days after inoculation; 0=no control, 100%=complete control; read-out: curative fungicidal activity, percent efficacy relative to untreated infected control
Description: Erysiphe graminis f.sp. hordei: Powdery Mildew of Barley, Curative Test Erysiphe graminis f.sp. hordei (Barley powdery mildew): Barley leaf segments are placed on agar in multiwell plates (24-well format). The leaf disks are inoculated with spores of the fungus (120 conidia/mm2). After 24 h the leaf disks are sprayed with the formulated (2% Dimethylsulfoxid, 0,025% Tween 20) test solutions. After appropriate incubation, the curative fungicidal activity of a compound is assessed 7 days after inoculation as disease damage on the leaf disks and calculated as percent efficacy relative to untreated infected control (0=no control of Erysiphe graminis f.sp. hordei, 100%=complete control). In this test, compounds listed in Table P above show good activity.

Puccinia recondita [2] = assay: Puccinia recondita, brown rust of wheat, preventative test on wheat leaf segments; details: foliar, 192 h, application rate 200 ppm, assessed 8 days after inoculation, 0=no control, 100%=complete control, read-out: preventive fungicidal activity, percent efficacy relative to untreated infected control
Description: (§1) Puccinia recondite: Brown Rust of Wheat, Preventative Test Puccinia recondita (Brown rust): Wheat leaf segments are placed on agar in multiwell plates (24-well format) and sprayed with the formulated (2% Dimethylsulfoxid, 0,025% Tween 20) test solutions. After drying, the leaf disks are inoculated with a spore suspension of the fungus (45'000 conidia/ml). After appropriate incubation, the preventive fungicidal activity of a compound is assessed 8 days after inoculation as disease damage on the leaf disks and calculated as percent efficacy relative to untreated infected control (0=no control of Puccinia recondita, 100%=complete control). In this test, compounds listed in Table P above show good activity.

Puccinia recondita [3] = assay: Puccinia recondita, brown rust of wheat, curative test on wheat leaf segments; details: foliar, 192 h, application rate 200 ppm, wheat leaf segments treated one day after inoculation, assessed 8 days after inoculation, 0=no control, 100%=complete control, read-out: curative fungicidal activity, percent efficacy relative to untreated infected control
[4] = test system: Erysiphe graminis f.sp. tritici; assay: Erysiphe graminis f.sp. tritici, wheat powdery mildew, preventative test on wheat leaf segments; details: Blumeria graminis, foliar, 168 h, application rate 200 ppm, assessed 7 days after inoculation, 0=no control, 100%=complete control, read-out: preventive fungicidal activity, percent efficacy relative to untreated infected control
Description: Erysiphe graminis f.sp. tritici: Wheat Powdery Mildew, Preventative Test Erysiphe graminis f.sp. tritici (Wheat powdery mildew): Wheat leaf segments are placed on agar in multiwell plates (24-well format) and sprayed with the formulated (2% Dimethylsulfoxid, 0,025% Tween 20) test solutions. After drying, the leaf disks are inoculated with spores of the fungus (50 conidia/mm2). After appropriate incubation, the preventive fungicidal activity of a compound is assessed 7 days after inoculation as disease damage on the leaf disks and calculated as percent efficacy relative to untreated infected control. (0=no control of Erysiphe graminis f.sp. tritici, 100%=complete control). In this test, compounds listed in Table P above show good activity.

Pyrenophora teres = assay: Pyrenophora teres, net blotch of barley, preventative test on barley leaf segments; details: foliar, 96 h, application rate 200 ppm, assessed 4 days after inoculation, 0=no control, 100%=complete control, read-out: preventive fungicidal activity, percent efficacy relative to untreated infected control
Description: as §1, with “Pyrenophora teres: Net Blotch” for “Puccinia recondite: Brown Rust”, “Barley,” for “Wheat,”, “Method Description Pyrenophora teres (Net blotch): Barley” for “Puccinia recondita (Brown rust): Wheat”, “(25'000” for “(45'000”, “4” for “8”, “Pyrenophora teres,” for “Puccinia recondita,”

Botrytis cinerea = assay: Botrytis cinerea, gray mould, preventative test on bean leaf disks; details: application rate 200 ppm, assessed 3 days after inoculation, 0=no control, 100%=complete control
Description: (§2) Botrytis cinerea: Gray Mould, Preventative Test Botrytis cinerea (Gray mould): Bean leaf disks are placed on agar in multiwell plates (24-well format) and sprayed with the formulated (2% Dimethylsulfoxid, 0,025% Tween 20) test solutions. After drying, the leaf disks are inoculated with a spore suspension of the fungus (60′000 conidia/ml). After appropriate incubation, the preventive fungicidal activity of a compound is assessed 3 days after inoculation as disease damage on the leaf disks and calculated as percent efficacy relative to untreated infected control. (0=no control of Botrytis cinerea, 100%=complete control). In this test, compounds listed in Table P above show good activity.

Plasmopara viticola = assay: Plasmopara viticola, downy mildew of grapevine, preventative test on grape vine leaf disks; details: application rate 200 ppm, assessed 6 days after inoculation, 0=no control, 100%=complete control
Description: as §2, with “Plasmopara viticola: Downy Mildew of Grapevine,” for “Botrytis cinerea: Gray Mould,”, “Plasmopara viticola (downy mildew of grapevine): Grape vine” for “Botrytis cinerea (Gray mould): Bean”, “(80′000” for “(60′000”, “6” for “3”, “Plasmopara viticola,” for “Botrytis cinerea,”

Row | Compound | pest or weed control at 200 ppm (Puccinia recondita [2]) | pest or weed control at 200 ppm (Puccinia recondita [3]) | pest or weed control at 200 ppm [4] | further results
1 | CCN(C)/C=N/c1cnc(Oc2ccc(Cl)c(C(F)(F)F)c2)c(C)c1 [P.19] |  |  |  | pest or weed control at 200 ppm [1]: ≥ 50%
2 | CCN(C)/C=N/c1cc(OC)c(OCCCC(C)C)nc1Br [P.70] | ≥ 50% | ≥ 50% |  | 
3 | CCN(C)/C=N/c1cc(Cl)c(OCCCC(C)C)nc1C#N [P.81] |  | ≥ 50% |  | 
4 | CCN(C)/C=N/c1cc(Br)c(Oc2ccc3ncc(Br)cc3c2)nc1C [P.78] |  |  | ≥ 50% | 
5 | CCN(C)/C=N/c1cnc(Oc2cccc(C(F)(F)F)c2)cc1C [P.36] |  | ≥ 50% |  | 
6 | CCN(C)/C=N/c1cc(Br)c(Oc2cccc3ccccc23)nc1C [P.76] | ≥ 50% | ≥ 50% | ≥ 50% | 
7 | CCN(C)/C=N/c1ccc(OCCCC(C)C)nc1C [P.28] | ≥ 50% | ≥ 50% | ≥ 50% | 
8 | CCN(C)/C=N/c1cc(Cl)c(OCCCC(C)C)nc1Br [P.64] | ≥ 50% | ≥ 50% | ≥ 50% | pest or weed control at 200 ppm (Pyrenophora teres): ≥ 50%
9 | CCN/C=N/c1cnc(Oc2ccc(Cl)c(C(F)(F)F)c2)c(C)c1 [P.08] |  |  |  | pest or weed control at 200 ppm [1]: ≥ 50%; pest or weed control at 200 ppm (Pyrenophora teres): ≥ 50%
10 | Cc1cc(/N=C/N(C)C)cnc1Oc1ccc(Cl)c(C(F)(F)F)c1 [P.09] |  |  | ≥ 50% | pest or weed control at 200 ppm (Pyrenophora teres): ≥ 50%
11 | CN(C)/C=N/c1ccc(Oc2ncc(C(F)(F)F)cc2Cl)nc1 [P.15] |  |  |  | pest or weed control at 200 ppm [1]: ≥ 50%
12 | Cc1cc(/N=C/N(C)C)cnc1Oc1cccc(C(C)(C)C)c1 [P.14] |  |  |  | pest or weed control at 200 ppm [1]: ≥ 50%
13 | CCN(C)/C=N/c1cnc(Oc2cccc(C(C)(C)C)c2)c(C)c1 [P.17] |  |  |  | pest or weed control at 200 ppm [1]: ≥ 50%
14 | CCN(C)/C=N/c1ccc(Oc2ccc(Cl)c(C(F)(F)F)c2)nc1C [P.07] | ≥ 50% |  | ≥ 50% | pest or weed control at 200 ppm [1]: ≥ 50%
15 | CCN(C)/C=N/c1cnc(Oc2ccc(Cl)c(C(F)(F)F)c2)cc1C [P.11] | ≥ 50% |  |  | pest or weed control at 200 ppm [1]: ≥ 50%
16 | CCN(C)/C=N/c1cc(Br)c(Oc2ccc(Cl)c(C(F)(F)F)c2)nc1C [P.29] | ≥ 50% | ≥ 50% | ≥ 50% | preventive fungicidal activity, percent efficacy relative to untreated infected control (Botrytis cinerea): at least 50%
17 | CCN(C)/C=N/c1ccc(Oc2ccc(Cl)cc2Cl)nc1 [P.01] |  |  |  | pest or weed control at 200 ppm [1]: ≥ 50%
18 | CCN(C)/C=N/c1cc(OC)c(Oc2ccc(Cl)c(C(F)(F)F)c2)nc1Cl [P.63] |  |  | ≥ 50% | 
19 | COc1ccc(Oc2ccc(/N=C/N(C)C)cn2)cc1 [P.21] |  |  | ≥ 50% | 
20 | Cc1nc(OCCCC(C)C)c(Br)cc1NC(=S)N(C)C(C)C [P.35] | ≥ 50% | ≥ 50% | ≥ 50% | 
21 | CCN(C)/C=N/c1cc(Br)c(OCCCC(C)C)nc1OC [P.61] | ≥ 50% | ≥ 50% | ≥ 50% | 
22 | CCN(C)/C=N/c1cc(OC)c(OCCCC(C)C)nc1Cl [P.73] | ≥ 50% | ≥ 50% | ≥ 50% | pest or weed control at 200 ppm (Pyrenophora teres): ≥ 50%

Row | Compound | pest or weed control at 200 ppm (Puccinia recondita [2]) | pest or weed control at 200 ppm (Puccinia recondita [3]) | pest or weed control at 200 ppm [4] | further results
23 | CCN(C)/C=N/c1cc(Cl)c(OCCCC(C)C)nc1OC [P.59] | ≥ 50% | ≥ 50% | ≥ 50% | 
24 | CCN(C)/C=N/c1cc(Br)c(OC2CCc3ccccc3C2)nc1C (stereo not drawn) [P.62] | ≥ 50% | ≥ 50% | ≥ 50% | pest or weed control at 200 ppm (Pyrenophora teres): ≥ 50%
25 | CN(C)/C=N/c1ccc(Oc2ccc(Cl)cc2)nc1 [P.22] |  |  | ≥ 50% | 
26 | Cc1cc(/N=C/N(C)c2ccccn2)cnc1Oc1ccc(Cl)c(C(F)(F)F)c1 [P.16] |  |  |  | pest or weed control at 200 ppm [1]: ≥ 50%
27 | CCN(C)/C=N/c1cc(Br)c(OCCCC(C)C)nc1Br [P.69] |  | ≥ 50% | ≥ 50% | pest or weed control at 200 ppm (Pyrenophora teres): ≥ 50%
28 | CCN(C)/C=N/c1cc(Br)c(OCCCC(C)C)nc1C [P.26] | ≥ 50% | ≥ 50% | ≥ 50% | 
29 | CCN(C)/C=N/c1cc(-c2ccc(F)cc2)c(Oc2ccc(Cl)c(C(F)(F)F)c2)nc1C [P.30] |  |  | ≥ 50% | 
30 | CCN(C)/C=N/c1cc(OC)c(Oc2ccc(Cl)c(C(F)(F)F)c2)nc1Br [P.68] |  |  | ≥ 50% | 
31 | CCN(C)/C=N/c1cc(C#N)c(Oc2cc(F)cc(F)c2)nc1C [P.41] |  | ≥ 50% |  | 
32 | CCN(C)/C=N/c1cc(Br)c(OC2CCc3cc(OC)ccc3C2)nc1C (stereo not drawn) [P.82] | ≥ 50% | ≥ 50% | ≥ 50% | 
33 | CCN(C)/C=N/c1cc(C#C[Si](C)(C)C)c(Oc2ccc(Cl)c(C(F)(F)F)c2)nc1C [P.31] | ≥ 50% | ≥ 50% |  | 
34 | CCN(C)/C=N/c1ccc(OCCCC(C)C)nc1OC [P.58] | ≥ 50% | ≥ 50% |  | 
35 | CCN(C)/C=N/c1cc(Cl)c(OCCCC(C)C)nc1C [P.46] |  |  |  | pest or weed control at 200 ppm (Pyrenophora teres): ≥ 50%
36 | CCN(C)/C=N/c1cc(Br)c(Oc2ccc3ccccc3c2)nc1C [P.77] | ≥ 50% | ≥ 50% | ≥ 50% | 
37 | CC(C)c1cc(Oc2ccc(Cl)c(Cl)c2)nc(C(C)C)c1/N=C/N(C)C [P.05] |  |  |  | pest or weed control at 200 ppm (Pyrenophora teres): ≥ 50%
38 | C#CC(C)N(C)/C=N/c1ccc(Oc2ccc(Cl)cc2Cl)nc1 (stereo not drawn) [P.04] |  |  |  | pest or weed control at 200 ppm [1]: ≥ 50%
39 | CCN(C)/C=N/c1cnc(Oc2cccc(C(F)(F)F)c2)c(Br)c1C [P.51] | ≥ 50% |  |  | 
40 | C#CC(C)N(C)/C=N/c1cnc(Oc2ccc(Cl)c(C(F)(F)F)c2)c(C)c1 (stereo not drawn) [P.10] |  |  |  | preventive fungicidal activity, percent efficacy relative to untreated infected control (Plasmopara viticola): at least 50%
41 | Cc1cc(Oc2ccc(Cl)c(C(F)(F)F)c2)ncc1/N=C/N(C)C [P.06] |  |  |  | pest or weed control at 200 ppm [1]: ≥ 50%
42 | CCN(C)/C=N/c1cc(Br)c(Oc2cc(Cl)c3ncc(Br)cc3c2)nc1C [P.79] | ≥ 50% |  |  | 
43 | CN(C)/C=N/c1ccc(Oc2ccc(Cl)cc2Cl)nc1 [P.03] |  |  |  | pest or weed control at 200 ppm [1]: ≥ 50%
